Measurements: paper PMC11889359, “Site-Specific Competitive Kinase Inhibitor Target Profiling Using Phosphonate Affinity Tags” (Molecular & Cellular Proteomics : MCP, 2025)
Where “and” joins values, the source holds several entries; their conditions need not be identical. Equal entries are not always repeated. Where two headings read alike, the source gives them in different places.

Tests used:
Assay in all cases: Competitive site-specific PhosID-ABPP with XO44 in intact A549 cells
Type in all cases: binding
EphA2 = biological target: T1, EphA2 (Homo sapiens, UniProt P29317); settings: apparent IC50, 3 h inhibitor then 25 μM XO44 4 h
T1 construct: endogenous in cells; host or cells: cultured cells treated intact (A549 per the earlier reading)
Description: (§1) 1e^6 cells were plated in 15 cm plates (Greiner) 3 days before treatment and kept in a humidified atmosphere with 5% CO2 at 37 °C. The growth medium was replaced by 10 ml treatment [DMEM with 0.5% FBS and 100 units/ml PS supplemented with the corresponding concentration of NVP-BHG712 (Sigma-Aldrich) or DMSO] and incubated at 37 °C, 5% CO2 for 3 h. Then, 10 μl 25 mM XO44 (PF-6808472, Sigma-Aldrich) was added directly to the medium and swirled to enable dissolution. Subsequently, the cells were incubated at 37 °C, 5% CO2 for 4 h. The samples for Supplemental Fig. S1 were generated by directly incubating with 25 μM XO44-containing growth medium for 4 h.
(§2) After treatment, the cells were washed with ice-cold DPBS and harvested using a cell scraper in 1 ml ice-cold DPBS. Then, the cell suspension was spun down at 2000g for 1 min, and the supernatant was aspirated. The cell pellet was snap-frozen in liquid nitrogen and stored at −80 °C for later use.
(§3) Cell pellets were lysed in 500 μl lysis buffer per 15 cm plate of cells, consisting of 50 mM Hepes (Sigma-Aldrich, pH 7.5), 0.5% NP-40 (Applichem), 0.2% SDS (Gen-Apex), 2 mM MgCl2 (Sigma-Aldrich), 10 mM NaCl (Merck), 1× protease inhibitor cocktail (Roche), and 0.5 μl/ml Benzonase (Millipore). Cell lysates were incubated at room temperature for 15 min to allow DNA cleavage. Cell debris and DNA were spun down for 30 min at 20,567g at 16 °C. The supernatant was collected, and the protein concentration was determined by a bicinchoninic acid assay (Thermo Fisher Scientific).
(§4) The copper(I)-catalyzed azide-alkyne cycloaddition (CuAAC) was performed on cellular lysates in 2 M urea (Merck) in 1× 50 mM Hepes (pH 7.5). CuAAC components were added in the following order: 5 mM tris(3-hydroxypropyltriazolylmethyl)amine (Lumiprobe), 2.5 mM CuSO4 5·H2O (Sigma-Aldrich), 500 μM phosphonate-azide (prepared as described in van Bergen et al., 2023 ([28])), and 25 mM sodium ascorbate (Sigma-Aldrich). Samples were incubated for 2 h at room temperature while rotating. Methanol–chloroform precipitation was performed to remove the CuAAC components, and the air-dried pellets were resuspended in 8 M urea and sonicated in a bioruptor (Diagenode) with the high amplitude setting for 10 min with cycles of 30 s on and 30 s off.
(§5) Clicked and dissolved protein samples were diluted to 4M urea with 50 mM ammonium bicarbonate (pH 8, AmBic, Sigma-Aldrich). The proteins were reduced with 4 mM DTT (Sigma-Aldrich) for 60 minutes at room temperature and alkylated in the dark using 8 mM iodoacetamide (Sigma-Aldrich) for 30 min. Residual iodoacetamide was quenched by adding DTT to a final concentration of 4 mM.
(§6) Next, samples were diluted 2× with 50 mM AmBic and digested with LysC (1:75 enzyme to protein ratio, Wako) for 4 h at 37 °C. Finally, proteins were digested overnight using Trypsin (1:50, enzyme to protein ratio, Sigma-Aldrich) at 37 °C. Proteolysis with chymotrypsin was performed similarly to the trypsin digestion, only replacing both proteolytic enzymes with α-chymotrypsin (bovine, 1:75, enzyme to protein ratio, Sigma-Aldrich) overnight at 37 °C. Digested material was desalted using 3 cc C18 Seppak cartridges (Waters) and air dried using a vacuum centrifuge.
(§7) For the digestion with pepsin, protease incubation (Porcine, 1:50, enzyme to protein ratio, Sigma-Aldrich) was performed for 4 h at 37 °C in 40 mM HCl (pH 2). Digested material was directly desalted using 3 cc C18 Seppak cartridges and air dried using a vacuum centrifuge.
(§8) Samples were dephosphorylated prior to immobilized metal affinity chromatography (IMAC) enrichment. Desalted peptides were dissolved in 1× rCutSmart buffer (pH 8, New England BioLabs) and incubated with 50 units of alkaline phosphatase (calf intestinal, QuickCIP, New England BioLabs) overnight at 37 °C while shaking. After dephosphorylation, all peptides were again desalted using 3 cc C18 Seppak cartridges and air-dried using a vacuum centrifuge. […]

EphB4 = biological target: T2, EphB4 (Homo sapiens, UniProt P54760); settings: apparent IC50, 3 h inhibitor then 25 μM XO44 4 h, n = 3, read-out: IC50 EphB4;K647
T2 construct: endogenous in cells; host or cells: cultured cells treated intact (A549 per the earlier reading)
T2 sequence (P54760 16-987): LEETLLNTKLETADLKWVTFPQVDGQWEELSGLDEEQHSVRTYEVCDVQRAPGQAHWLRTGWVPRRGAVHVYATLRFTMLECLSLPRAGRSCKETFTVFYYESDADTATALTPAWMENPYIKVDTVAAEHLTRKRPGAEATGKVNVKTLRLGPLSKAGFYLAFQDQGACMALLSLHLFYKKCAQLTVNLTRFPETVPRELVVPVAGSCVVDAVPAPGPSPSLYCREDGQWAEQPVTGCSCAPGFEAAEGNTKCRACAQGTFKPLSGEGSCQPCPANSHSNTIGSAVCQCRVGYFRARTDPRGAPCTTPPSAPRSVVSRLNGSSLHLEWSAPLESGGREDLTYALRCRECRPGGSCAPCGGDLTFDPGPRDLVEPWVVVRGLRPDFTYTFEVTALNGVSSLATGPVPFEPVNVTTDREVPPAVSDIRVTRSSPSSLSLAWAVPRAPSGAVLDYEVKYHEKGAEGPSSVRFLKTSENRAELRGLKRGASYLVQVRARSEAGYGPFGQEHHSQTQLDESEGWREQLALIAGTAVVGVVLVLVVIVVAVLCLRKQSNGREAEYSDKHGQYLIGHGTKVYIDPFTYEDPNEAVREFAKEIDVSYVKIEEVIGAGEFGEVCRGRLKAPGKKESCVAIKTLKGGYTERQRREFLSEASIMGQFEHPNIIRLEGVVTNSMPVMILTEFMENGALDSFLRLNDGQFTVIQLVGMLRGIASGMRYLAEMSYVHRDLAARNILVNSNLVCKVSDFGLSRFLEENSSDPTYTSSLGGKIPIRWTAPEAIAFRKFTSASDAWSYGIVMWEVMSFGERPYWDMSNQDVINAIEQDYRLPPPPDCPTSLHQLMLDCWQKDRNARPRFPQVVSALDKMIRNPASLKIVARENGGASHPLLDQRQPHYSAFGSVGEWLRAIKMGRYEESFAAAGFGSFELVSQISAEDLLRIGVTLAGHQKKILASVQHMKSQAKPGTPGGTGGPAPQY
Description: as §1, §2, §3, §4, §5, §6, §7, §8

JAK1 = biological target: T3, JAK1 (Homo sapiens, UniProt P23458); settings: 0.1 nM to 25 µM inhibitor, trypsin and pepsin
T3 construct: endogenous in cells; host or cells: cultured cells treated intact (A549 per the earlier reading)
Description: as §1, §2, §3, §4, §5, §6, §7, §8

JAK2 = biological target: T4, JAK2 (Homo sapiens, UniProt O60674); settings: 0.1 nM to 25 µM inhibitor, trypsin and pepsin
T4 construct: endogenous in cells; host or cells: cultured cells treated intact (A549 per the earlier reading)
Description: as §1, §2, §3, §4, §5, §6, §7, §8

LYN = biological target: T5, LYN (Homo sapiens, UniProt P07948); settings: apparent IC50, pepsin-based analysis, n = 3, read-out: IC50 LYN;K275
T5 construct: endogenous in cells; host or cells: cultured cells treated intact (A549 per the earlier reading)
Description: as §1, §2, §3, §4, §5, §6, §7, §8

MAP3K20 = biological target: T6, MAP3K20 (Homo sapiens, UniProt Q9NYL2); settings: apparent IC50, unique peptide, n = 3, read-out: IC50 MAP3K20;K45
T6 construct: endogenous in cells; host or cells: cultured cells treated intact (A549 per the earlier reading)
Description: as §1, §2, §3, §4, §5, §6, §7, §8

[1] = biological target: T7, cyclin G–associated kinase (GAK) (Homo sapiens, UniProt O14976)
T7 construct: endogenous in cells; host or cells: cultured cells treated intact (A549 per the earlier reading)
T7 sequence (O14976 1-1311): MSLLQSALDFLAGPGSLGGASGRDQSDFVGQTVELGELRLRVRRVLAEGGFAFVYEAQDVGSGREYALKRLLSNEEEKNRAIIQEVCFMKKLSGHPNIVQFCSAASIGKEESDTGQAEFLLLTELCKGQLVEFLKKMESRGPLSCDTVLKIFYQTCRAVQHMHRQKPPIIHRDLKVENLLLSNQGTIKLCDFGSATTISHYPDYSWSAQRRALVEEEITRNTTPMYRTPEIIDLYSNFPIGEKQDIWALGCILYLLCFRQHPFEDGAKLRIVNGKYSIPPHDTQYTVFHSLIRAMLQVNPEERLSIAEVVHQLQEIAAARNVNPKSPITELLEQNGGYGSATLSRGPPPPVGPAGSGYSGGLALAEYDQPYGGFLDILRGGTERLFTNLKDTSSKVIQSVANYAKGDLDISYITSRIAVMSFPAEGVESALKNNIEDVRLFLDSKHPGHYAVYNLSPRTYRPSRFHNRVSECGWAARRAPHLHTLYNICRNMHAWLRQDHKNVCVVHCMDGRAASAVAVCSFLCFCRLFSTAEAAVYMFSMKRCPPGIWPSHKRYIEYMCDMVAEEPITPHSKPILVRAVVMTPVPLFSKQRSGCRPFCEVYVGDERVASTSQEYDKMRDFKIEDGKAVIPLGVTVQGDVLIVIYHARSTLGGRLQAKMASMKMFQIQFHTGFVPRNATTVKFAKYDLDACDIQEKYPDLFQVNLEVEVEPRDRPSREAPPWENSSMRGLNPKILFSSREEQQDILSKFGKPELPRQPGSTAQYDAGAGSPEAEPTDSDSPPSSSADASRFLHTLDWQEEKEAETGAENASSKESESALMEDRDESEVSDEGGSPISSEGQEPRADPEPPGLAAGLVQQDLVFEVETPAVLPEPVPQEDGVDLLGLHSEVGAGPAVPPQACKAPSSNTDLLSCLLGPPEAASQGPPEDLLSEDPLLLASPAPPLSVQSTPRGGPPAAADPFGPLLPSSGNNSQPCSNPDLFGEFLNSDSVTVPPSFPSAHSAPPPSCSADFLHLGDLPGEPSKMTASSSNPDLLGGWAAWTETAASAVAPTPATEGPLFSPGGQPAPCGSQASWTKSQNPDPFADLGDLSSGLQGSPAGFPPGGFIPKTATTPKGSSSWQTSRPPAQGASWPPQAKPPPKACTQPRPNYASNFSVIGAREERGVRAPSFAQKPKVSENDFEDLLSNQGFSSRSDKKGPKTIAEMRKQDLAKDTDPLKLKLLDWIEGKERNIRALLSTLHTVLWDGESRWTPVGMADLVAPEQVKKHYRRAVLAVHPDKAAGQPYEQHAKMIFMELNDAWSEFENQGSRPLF
Description: as §1, §2, §3, §4, §5, §6, §7, §8

T1 sequence (P29317 24-976): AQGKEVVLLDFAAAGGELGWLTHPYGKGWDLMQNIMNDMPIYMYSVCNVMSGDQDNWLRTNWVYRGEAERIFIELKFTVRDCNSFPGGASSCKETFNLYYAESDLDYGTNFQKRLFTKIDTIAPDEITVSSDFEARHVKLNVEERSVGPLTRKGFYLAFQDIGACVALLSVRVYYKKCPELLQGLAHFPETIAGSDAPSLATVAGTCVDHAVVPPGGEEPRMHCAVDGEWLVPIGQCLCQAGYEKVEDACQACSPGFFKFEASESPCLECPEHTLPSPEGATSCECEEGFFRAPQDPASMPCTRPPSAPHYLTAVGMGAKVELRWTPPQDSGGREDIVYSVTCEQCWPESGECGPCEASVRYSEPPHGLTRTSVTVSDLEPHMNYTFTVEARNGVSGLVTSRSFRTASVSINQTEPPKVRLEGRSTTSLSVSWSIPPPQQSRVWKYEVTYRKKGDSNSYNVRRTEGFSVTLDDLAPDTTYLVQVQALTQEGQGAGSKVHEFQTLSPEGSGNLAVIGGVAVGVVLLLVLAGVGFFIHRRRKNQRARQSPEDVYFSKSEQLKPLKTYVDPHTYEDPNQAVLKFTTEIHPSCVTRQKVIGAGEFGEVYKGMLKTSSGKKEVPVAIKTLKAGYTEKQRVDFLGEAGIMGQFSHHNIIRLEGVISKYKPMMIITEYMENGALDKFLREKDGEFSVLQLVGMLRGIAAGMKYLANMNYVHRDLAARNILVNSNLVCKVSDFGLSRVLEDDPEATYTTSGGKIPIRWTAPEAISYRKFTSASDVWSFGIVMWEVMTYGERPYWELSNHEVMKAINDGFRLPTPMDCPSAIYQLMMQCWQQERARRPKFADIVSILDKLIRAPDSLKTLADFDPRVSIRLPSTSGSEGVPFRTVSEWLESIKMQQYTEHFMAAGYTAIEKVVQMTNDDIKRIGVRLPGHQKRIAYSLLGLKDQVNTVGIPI
T3 sequence (P23458 whole entry): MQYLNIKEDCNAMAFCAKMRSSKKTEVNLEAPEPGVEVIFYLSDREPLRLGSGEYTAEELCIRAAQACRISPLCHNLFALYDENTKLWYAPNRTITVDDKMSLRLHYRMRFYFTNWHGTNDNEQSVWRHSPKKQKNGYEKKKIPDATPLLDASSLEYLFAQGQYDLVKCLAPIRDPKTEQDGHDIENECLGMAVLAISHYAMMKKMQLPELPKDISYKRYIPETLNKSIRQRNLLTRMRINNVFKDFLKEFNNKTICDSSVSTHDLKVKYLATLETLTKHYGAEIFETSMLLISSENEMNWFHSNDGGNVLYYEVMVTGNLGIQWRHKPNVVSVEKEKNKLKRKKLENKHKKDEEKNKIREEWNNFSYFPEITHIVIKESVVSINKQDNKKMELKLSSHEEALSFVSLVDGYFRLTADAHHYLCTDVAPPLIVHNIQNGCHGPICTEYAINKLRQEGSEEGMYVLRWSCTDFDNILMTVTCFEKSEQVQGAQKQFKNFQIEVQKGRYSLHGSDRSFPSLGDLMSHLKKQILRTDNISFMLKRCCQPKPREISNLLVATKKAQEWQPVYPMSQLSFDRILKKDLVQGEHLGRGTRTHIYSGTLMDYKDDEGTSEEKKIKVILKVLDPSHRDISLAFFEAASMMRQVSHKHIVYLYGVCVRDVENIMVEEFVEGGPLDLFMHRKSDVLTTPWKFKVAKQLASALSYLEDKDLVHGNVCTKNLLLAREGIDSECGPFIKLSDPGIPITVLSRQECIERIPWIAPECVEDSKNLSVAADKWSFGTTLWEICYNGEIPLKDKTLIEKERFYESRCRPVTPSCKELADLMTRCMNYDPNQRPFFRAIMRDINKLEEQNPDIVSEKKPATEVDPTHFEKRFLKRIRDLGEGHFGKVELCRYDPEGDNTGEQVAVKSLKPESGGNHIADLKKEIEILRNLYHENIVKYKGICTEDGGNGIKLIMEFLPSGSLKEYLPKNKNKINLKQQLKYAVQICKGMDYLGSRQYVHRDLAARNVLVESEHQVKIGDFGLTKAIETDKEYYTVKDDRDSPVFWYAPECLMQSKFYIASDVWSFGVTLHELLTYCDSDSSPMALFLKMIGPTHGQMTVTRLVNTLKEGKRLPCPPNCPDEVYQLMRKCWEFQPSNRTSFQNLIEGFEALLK
T4 sequence (O60674 whole entry): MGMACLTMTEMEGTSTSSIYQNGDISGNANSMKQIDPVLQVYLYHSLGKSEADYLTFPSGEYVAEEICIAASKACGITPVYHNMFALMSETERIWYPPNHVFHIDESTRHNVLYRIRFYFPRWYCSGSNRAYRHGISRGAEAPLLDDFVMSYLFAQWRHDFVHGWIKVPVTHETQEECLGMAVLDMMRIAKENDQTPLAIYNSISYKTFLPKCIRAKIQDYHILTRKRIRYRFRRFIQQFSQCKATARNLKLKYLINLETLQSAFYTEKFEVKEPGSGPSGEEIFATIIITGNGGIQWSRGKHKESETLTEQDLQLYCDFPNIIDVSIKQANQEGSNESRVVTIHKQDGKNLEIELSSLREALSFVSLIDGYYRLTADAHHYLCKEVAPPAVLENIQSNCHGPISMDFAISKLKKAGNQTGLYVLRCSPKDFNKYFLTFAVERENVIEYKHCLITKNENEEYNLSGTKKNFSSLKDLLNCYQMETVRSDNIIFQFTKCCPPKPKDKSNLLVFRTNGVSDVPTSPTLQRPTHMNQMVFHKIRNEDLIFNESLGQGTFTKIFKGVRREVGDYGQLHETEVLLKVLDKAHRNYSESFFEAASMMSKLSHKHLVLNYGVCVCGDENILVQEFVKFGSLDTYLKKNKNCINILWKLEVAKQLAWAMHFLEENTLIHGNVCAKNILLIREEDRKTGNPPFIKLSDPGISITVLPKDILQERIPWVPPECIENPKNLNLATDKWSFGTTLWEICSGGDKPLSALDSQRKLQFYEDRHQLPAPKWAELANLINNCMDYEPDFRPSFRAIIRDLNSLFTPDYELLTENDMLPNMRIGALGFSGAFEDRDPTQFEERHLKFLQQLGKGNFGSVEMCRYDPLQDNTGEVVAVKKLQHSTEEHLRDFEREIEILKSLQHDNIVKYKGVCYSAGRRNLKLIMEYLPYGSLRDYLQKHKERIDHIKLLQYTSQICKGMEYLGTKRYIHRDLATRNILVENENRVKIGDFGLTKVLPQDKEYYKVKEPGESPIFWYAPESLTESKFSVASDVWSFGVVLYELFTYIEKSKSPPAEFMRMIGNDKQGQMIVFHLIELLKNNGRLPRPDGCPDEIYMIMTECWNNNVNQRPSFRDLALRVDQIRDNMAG
T5 sequence (P07948 whole entry): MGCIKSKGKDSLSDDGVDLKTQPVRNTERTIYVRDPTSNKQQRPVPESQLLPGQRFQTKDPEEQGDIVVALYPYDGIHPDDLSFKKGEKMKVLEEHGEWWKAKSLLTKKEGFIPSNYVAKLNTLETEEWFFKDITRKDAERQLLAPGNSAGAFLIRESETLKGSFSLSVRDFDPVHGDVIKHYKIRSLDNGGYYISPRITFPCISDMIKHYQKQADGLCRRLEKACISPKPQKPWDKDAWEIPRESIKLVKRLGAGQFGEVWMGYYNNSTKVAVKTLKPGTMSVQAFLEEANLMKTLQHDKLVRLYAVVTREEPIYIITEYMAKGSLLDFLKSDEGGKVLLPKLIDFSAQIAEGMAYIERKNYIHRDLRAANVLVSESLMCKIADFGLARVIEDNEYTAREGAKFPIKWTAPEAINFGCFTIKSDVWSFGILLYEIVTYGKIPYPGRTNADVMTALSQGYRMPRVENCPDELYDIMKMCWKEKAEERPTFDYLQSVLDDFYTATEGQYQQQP

In the case of NVP-BHG712, the IC50 (EphA2; pepsin, n = 3, read-out: IC50 EphA2;K646, peptic analysis) is reported as 0.0205 µM, the IC50 (EphA2; trypsin, n = 3, read-out: IC50 EphA2;K646, tryptic analysis) is reported as 0.017 µM and the IC50 (EphB4) is reported as 0.02 µM and 0.0202 µM. The “Interaction with ATP-binding pocket, JAK1;K908 signal across the concentration range” value (JAK1) was “do not interact”, the “Interaction with ATP-binding pocket, JAK2;K882 signal across the concentration range” value (JAK2) was “do not interact” and the IC50 (LYN) was 13.4 µM. The IC50 (MAP3K20) was 2.9 µM, the IC50 ([1]; apparent IC50, lysine 69 in ATP pocket, n = 3, read-out: IC50 GAK;K69) was 9.4 µM and the IC50 ([1]; apparent IC50, lysine 175 in ATP pocket, n = 3, read-out: IC50 GAK;K175) was 13 µM.
